Reference: PubChem BioAssay (NCI)
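Assay format: 96-well plates, 48-hour exposure. TGI marks complete inhibition of growth.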

Legend:
Assay in all cases: inhibition of tumour cell growth, NCI panel, 48 h
EKVX NSCLC = tested on: EKVX NSCLC
HOP-62 NSCLC = tested on: HOP-62 NSCLC
HT29 colon = tested on: HT29 colon
LOX IMVI melanoma = tested on: LOX IMVI melanoma
MCF7 breast = tested on: MCF7 breast
MDA-MB-435 = tested on: MDA-MB-435
NCI-H23 lung = tested on: NCI-H23 lung
SF-295 CNS = tested on: SF-295 CNS
T-47D breast = tested on: T-47D breast
UACC-257 melanoma = tested on: UACC-257 melanoma

Row | Compound | TGI (EKVX NSCLC) | TGI (HOP-62 NSCLC) | TGI (HT29 colon) | TGI (LOX IMVI melanoma) | TGI (MCF7 breast) | TGI (MDA-MB-435) | TGI (NCI-H23 lung) | TGI (SF-295 CNS) | TGI (T-47D breast) | TGI (UACC-257 melanoma)
1 | Cc1ccc([N+](=O)[O-])cc1S(=O)(=O)Nc1ccc(C(=O)/C=C/c2ccccc2)cc1 | 33.5 µM | 34.5 µM | 57.6 µM | 36.7 µM | 26.8 µM | 36.6 µM | 34.7 µM | 44.1 µM | 44.6 µM | 34.6 µM
2 | O=C(c1ccccc1)c1ccc(N2C(=O)/C(=C/c3cccc([N+](=O)[O-])c3)N=C2c2ccccc2)c(N2C(=O)/C(=C/c3cccc([N+](=O)[O-])c3)N=C2c2ccccc2)c1 | > 100 µM | > 100 µM | > 100 µM | > 100 µM | > 100 µM | 29.8 µM | – | > 100 µM | > 100 µM | > 100 µM
3 | O=c1[nH]ncc2[nH]c(-c3ccccc3)cc12 | > 100 µM | > 100 µM | > 100 µM | > 100 µM | > 100 µM | > 100 µM | > 100 µM | > 100 µM | > 100 µM | > 100 µM
4 | CNC(=S)N/N=C(\C)c1cc(OC)c(OC)cc1O | > 100 µM | > 100 µM | > 100 µM | – | > 100 µM | > 100 µM | – | – | > 100 µM | > 100 µM
5 | Cn1c(=O)oc2cc(C(=O)CN3CCN(Cc4ccc5c(c4)OCO5)CC3)c(Cl)cc21 | – | > 100 µM | – | > 100 µM | > 100 µM | – | > 100 µM | > 100 µM | > 100 µM | –
6 | COc1ccc(-c2c(C(C)=O)c(C)n(C3OC(COC(C)=O)C(OC(C)=O)C(OC(C)=O)C3OC(C)=O)c(=S)c2C#N)cc1 (stereo not drawn) | – | > 100 µM | > 100 µM | > 100 µM | > 100 µM | > 100 µM | > 100 µM | > 100 µM | > 100 µM | > 100 µM
7 | COc1cc(C2SC(N)=Nc3c2c(C)nn3C(=O)Cc2ccccc2)cc(OC)c1OC (stereo not drawn) | > 100 µM | > 100 µM | > 100 µM | > 100 µM | > 100 µM | > 100 µM | > 100 µM | > 100 µM | > 100 µM | > 100 µM
8 | COc1ccc2cc(NC(=O)Nn3cnnc3)ccc2c1 | > 100 µM | > 100 µM | > 100 µM | > 100 µM | > 100 µM | > 100 µM | > 100 µM | > 100 µM | > 100 µM | > 100 µM
9 | CC(C)C1=CC23CCC4C(C)(C(=O)O)CCCC4(C)C2CC1C1C(=O)N(c2ccc(N4C(=O)C5C6CC7C8(C)CCCC(C)(C(=O)O)C8CCC7(C=C6C(C)C)C5C4=O)cc2)C(=O)C13 (stereo not drawn) | 18.7 µM | 19.3 µM | 5.22 µM | – | 13.5 µM | 13 µM | 11.9 µM | – | 26.8 µM | –
10 | Brc1ccc(N=C/C=C(\Nc2ccc(Br)cc2)C23CC4CC(CC(C4)C2)C3)cc1 | 56.2 µM | 43.6 µM | > 61.6 µM | 21.8 µM | 28.4 µM | 24.7 µM | > 65.8 µM | > 92 µM | 43.9 µM | 36.8 µM
11 | COc1cc(/C=C2\N=C(c3ccccc3)N(c3ccc4c(c3)Sc3cc(N5C(=O)/C(=C/c6cc(OC)c(OC)c(OC)c6)N=C5c5ccccc5)ccc3N4)C2=O)cc(OC)c1OC | 54.6 µM | 60.2 µM | > 100 µM | 52 µM | 37.1 µM | 33.6 µM | 40.3 µM | 47.9 µM | 70.2 µM | 31.3 µM
12 | Oc1c(Nc2ccccc2)cc2c3c1N=NC=3CCN=2 | > 100 µM | > 100 µM | > 100 µM | 46.6 µM | 69 µM | 31 µM | > 100 µM | > 100 µM | > 100 µM | –
13 | COc1ccc(-c2nc(SCC(=O)N/N=C/c3ccc([N+](=O)[O-])cc3)[nH]c2-c2ccc(OC)cc2)cc1 | 98.8 µM | > 100 µM | 26.9 µM | 44.1 µM | 20.6 µM | 12.2 µM | 85.6 µM | > 69 µM | > 100 µM | 49.4 µM
14 | COc1ccccc1NC(=S)NNC(=O)c1cc(-c2ccccc2)nc2ccccc12 | – | 32 µM | 71.3 µM | – | – | 18.5 µM | 32.3 µM | 18 µM | 63 µM | 57.8 µM
15 | COc1cc(S(=O)(=O)Nc2ccc(-c3csc(/N=C\c4ccccc4O)n3)cc2)ccc1Cl | > 100 µM | > 100 µM | > 100 µM | > 100 µM | 59.7 µM | > 100 µM | > 100 µM | > 100 µM | 61.2 µM | –
16 | COc1ccc(NS(=O)(=O)c2ccc3ncn(NS(=O)(=O)c4ccc(I)cc4)c(=O)c3c2)cc1 | > 100 µM | > 100 µM | > 100 µM | > 100 µM | > 100 µM | > 100 µM | > 100 µM | > 100 µM | > 100 µM | > 100 µM
17 | CC1(C)CCCCC1/C=C/C(CC(O)(C(F)(F)F)C(F)(F)F)=N\Nc1ccc([N+](=O)[O-])cc1[N+](=O)[O-] (stereo not drawn) | – | 10.7 µM | 11.3 µM | 10.6 µM | 5.42 µM | 7.9 µM | 0.778 µM | 9.01 µM | 2.99 µM | 7.55 µM
18 | Cc1c(/C=N/NC(=S)Nc2ccc([N+](=O)[O-])cc2)c(=O)n(-c2ccccc2)n1C | 24.5 µM | 23.8 µM | 25.5 µM | 33.3 µM | 50 µM | > 100 µM | 32.6 µM | 22.7 µM | – | > 100 µM
19 | CCOc1ccc(-n2c(=O)c3nn4c(=O)n(-c5ccc(OCC)cc5)c(=O)c4nn3c2=O)cc1 | > 100 µM | > 100 µM | > 100 µM | > 100 µM | > 100 µM | > 100 µM | > 100 µM | > 100 µM | > 100 µM | > 100 µM
20 | C=C1CC2(C)CCC(OC(=O)C3(C)OC3C)C(C)(OC(C)=O)C2CC1=C(C)C (stereo not drawn) | > 100 µM | > 100 µM | > 100 µM | > 100 µM | > 100 µM | > 100 µM | > 100 µM | > 100 µM | > 100 µM | > 100 µM
21 | N#Cc1nc(/C=C/c2cccs2)oc1N | > 100 µM | > 100 µM | > 100 µM | > 100 µM | > 100 µM | > 100 µM | – | – | – | > 100 µM
22 | CN(NC(=O)c1ccc(Cl)cc1)C1=NCCCCN1 | > 100 µM | > 100 µM | > 100 µM | > 100 µM | > 100 µM | > 100 µM | > 100 µM | > 100 µM | > 100 µM | > 100 µM
